These results are taken from a melting point compilation (Tetko et al.; mined from patent text by program, amines drawn as free bases though some values may be those of a salt).

The term melting point denotes the temperature of the solid-liquid transition. Compound `O=C(c1ccc(-c2cnc3c(c2)N(Cc2c(F)ccc(F)c2Cl)CCN3)cc1)N1CCC(N2CCCC2)CC1` yielded a melting point of 93 to 95 °C. With `CCOCC(=O)Nc1ccc(C2=NNC(=O)CC2C)cc1` (stereo not given) the figure was 195 to 197 °C; with `O=C(Nc1ccc(Cl)cc1)NC1CCN(C(=O)Cc2c[nH]cn2)CC1`, 174 to 176 °C; with `CCCCCCCCOc1ccc(-c2ccc(C(C)OC(=O)CCCCC)cc2)cc1` (single isomer, unassigned; (-)), 60.8 °C. Turning to `CCOC(=O)NC(=O)c1nc(Cl)c(Cl)[nH]1`, the melting point worked out at 208 °C. In turn, `CCCCCCCCCCCCCCOc1ccccc1CBr` had a melting point of 35 to 36 °C. Under `CCOC(=O)CCc1cc(O)nn1CC(C)C` stands 102 to 103 °C; under `COC(=O)C(=O)c1cc[nH]c1`, 112 °C.

`Cc1nc(-c2ccc(C(F)(F)F)cc2)sc1CN(C)c1ccc(OCC(=O)O)c(F)c1` gave a melting point of 113 to 114 °C. `O=C(O)c1ccc(NCCCCCCCCCCCOc2ccccc2)cc1` yielded a melting point of 117 to 119 °C. On to `Cc1cccc(Cl)c1C(=O)N[C@@H](Cc1ccc(-c2cn(C)c(=O)n(C)c2=O)cc1)C(=O)O`, for which the melting point lay in the range of 234 to 236 °C. For the compound `CCN(CC)C(=O)C1CCC2C3CC=C4N(C)C(=O)CCC4(C)C3CCC12C` (stereo not given), the melting point lay in the range of 115 to 118 °C. In turn, `COC(=O)c1cc(-c2cccc(Cl)c2Cl)c(C(=O)OC)[nH]1` displayed a melting point of 143 to 145 °C.

`CCOC(=O)c1ccccc1Nc1nc(Nc2ccc3c(c2)CCN(CCOC)CC3)ncc1Cl` displayed a melting point of 78 to 80 °C. In the case of `Cc1nn(-c2ccc(C(F)(F)F)cn2)cc1COc1cc(CO)n(C)n1`, the melting point fell in the range of 128 to 129 °C. Under `O=S(Cc1ccccc1)c1ncc(Cl)cn1` (stereo not given) stands 92 °C; under `CNC(=NS(C)(=O)=O)NCCSCc1nccc(NC(N)=NCC(F)(F)F)n1`, 148 to 149 °C.

`Cn1c(CC(=O)O)ccc1C(=O)c1ccc(C#N)cc1` registered a melting point of 196 to 198 °C. Under `COc1cc2ncnc(Nc3cccc(Br)c3)c2cc1OC(C)=O` stands 238 °C. The compound `CN1CCC(C2(O)c3ccc(F)cc3Sc3ccc(F)cc32)CC1` (stereo not given) came in with a melting point of 207 to 209 °C. With `CC(C)(C)C(=O)Nc1nc(O)c2c(C#C[Si](C)(C)C)c[nH]c2n1` the figure was over 300 °C. With `Cc1ccc(CNC(=O)C2=C(C(=O)Nc3cc(OC4CCCC4)c(Cl)cc3F)CCCC2)cc1` the figure was 168 to 169 °C; with `NCc1c(NC2CCCCC2)cccc1-c1ccccc1`, 95 to 96 °C.

`Cn1cc2c3c(ccc2n1)CCC3=O`: the melting point lay in the range of 162 to 164 °C. With `CCOC(=N)c1ccc(-c2nc3c(s2)NCCCC3)cc1` the figure was 141 to 143 °C; with `O=Cc1cc(-c2ccccc2F)n(S(=O)(=O)c2cccnc2)c1`, 106 to 108 °C; with `CCCNCCc1cccc(NS(=O)(=O)c2cccc(Cl)c2)c1`, 145 to 148 °C. With `COc1ccc2c(c1)S(=O)(=O)c1ccccc1C(=S)N2` the figure was 250 to 252 °C; with `COc1cc(N)ccc1-c1nc(-c2cccnc2)c(C)[nH]1`, 95 to 100 °C. With `C#CC1(O)CCC2C3C(C)CC4=CC(=O)CCC4C3CCC21CC` (stereo not given) the figure was 182 to 184 °C; with `COc1c([N+](=O)[O-])ccc(N)c1Cl`, 118 to 123 °C; with `CN(C(=O)OC(C)(C)C)c1ccc(C#CCCCO)cc1`, 103 to 105 °C. Regarding `COc1ccc(/C=C(\C#N)c2ccc(O)cc2)cc1OC1CCCC1`, the melting point was 138 to 140 °C. As for `O[C@H](CCl)CN=Cc1ccccc1`, the melting point stood at 46 °C.

Turning to `COc1cc(/C=C/C(=O)O)cc(OC)c1OCc1ccccc1`, the melting point stood at 102 °C. Under `O=C(O)c1ccc(C=Cc2ccc(C(=O)O)cc2)cc1` stands over 280 °C; under `O=C1Cn2c(c(Cl)c3ccccc32)-c2ccccc2N1`, 287 to 289 °C; under `O=c1c2ccccc2[nH]c(=S)n1CCN1CCC(Nc2nc3ccccc3n2Cc2ccc(F)cc2)CC1`, 198 °C. With `Nc1nc(Cl)cc(NCC2(CO)COC2)n1` the figure was 185 to 186 °C; with `O=C(O)CCC(=NO)c1ccc(-c2ccc(Br)cc2F)cc1`, 163 to 164 °C.

`COC(=O)c1ccc(OC(C)c2ccccc2OCc2ccccc2)cc1` (stereo not given): the melting point lay in the range of 90.8 to 91.5 °C.

For `CNc1nc(C(N)=O)c(-c2ccncc2)s1`, the melting point lay within 212 to 213 °C. In turn, `CC(=O)NC1=NN(c2ccccc2)C(C)C1` (stereo not given) yielded a melting point of 144 to 146 °C. Compound `O=C(Nc1ccc(-n2nc(C(F)(F)F)cc2C(F)(F)F)cc1)c1ccc(F)cc1F` registered a melting point of 126 to 128 °C. With `O=C(OCc1ccccc1)N1C=CC(c2cccc(Cl)c2Cl)C=C1` the figure was 69 to 70 °C; with `Oc1ccc2c(c1)[C@H](O)[C@H](Oc1cccnc1)CO2` (relative stereo), 194 to 197 °C; with `N#Cc1ccc(CN2C(=O)C3CCCC3N(C(=O)CN3C(=O)c4ccccc4C3=O)c3ccccc32)cc1` (stereo not given), 222 to 224 °C. Under `CC(=O)Cc1ccc2c(c1)-c1[nH]c3ccc(C(F)(F)F)cc3c1CC(=O)N2` stands 295 to 297 °C; under `COc1ccc(S(=O)(=O)N2Cc3ccccc3N(C(=O)c3ccc(-n4ccc(C)n4)cc3Cl)CC2C(=O)NO)cc1` (stereo not given), 189 to 191 °C; under `O=C1OCC2C3OC(C4=C3CCCC4)C12` (stereo not given), 105 to 106 °C. Under `COCCOc1ccccc1OS(=O)(=O)NC(=O)Nc1nc(OC)cc(OC)n1` stands 106 to 108 °C; under `C=CCOc1ccc2c(c1)CCNC2=O`, 105 to 107 °C; under `CN1C(=O)C(NC(=O)OCc2ccccc2)N=C(c2ccccc2)c2ccccc21` (stereo not given), 78 to 80 °C. `CCCCc1sc(C(=O)O)c2c1-c1c(cnn1C)CC2` had a melting point of 286 to 287 °C. With `CC(C)n1cc(C(=O)C(F)(F)F)c2ccc([N+](=O)[O-])cc21` the figure was 143 to 145 °C; with `CN1CCCCC1CCc1ccccc1NS(C)(=O)=O` (stereo not given), 91.5 to 93.5 °C; with `C=CC(=O)N1CCSc2ccccc2C1`, 108 to 110 °C. Under `COc1cc(C=O)c(OC)c2ccccc12` stands 120 to 123 °C. With `CCN(CC)CCCCOc1ccc(-c2nnc(CSCCOc3ccccc3)o2)cc1` the figure was 35 to 38 °C. For the compound `Cc1ccccc1N1CCN(CCn2c(=O)[nH]c3sccc3c2=O)CC1`, the melting point was 191 to 193 °C. Compound `CCOC(=O)Cc1sc(Sc2nc(C)ccc2C(=O)OCC)nc1C` came in with a melting point of 95 to 97 °C.

In the case of `NCC(c1ccc(Cl)c(Cl)c1)C1CCCCC1O` (mixture of isomers), the melting point was in the range of 117 to 118 °C.

`Cc1oc2cc(O)ccc2c(=O)c1C(N)=O` yielded a melting point of 289 to 290 °C. `CCOC(=O)c1ncc2[nH]c3cccc(Oc4ccc(N)cc4)c3c2c1COC` yielded a melting point of 222 to 224 °C. With `CCCC(CNC(=O)Cc1c(Cl)cncc1Cl)c1cccc(OC)c1` (stereo not given) the figure was 97 to 98 °C; with `COc1ccccc1-c1cccc([N+](=O)[O-])c1`, 68 to 69 °C; with `COCCCNC(=O)c1ccc(C(=O)N2CCN(c3ncccc3NC(C)C)CC2)nc1`, 95 to 96 °C. With `CCOC(=O)c1c(N)sc(C#N)c1C` the figure was 200 to 202 °C; with `CN(C)S(=O)(=O)CCCOc1ccc2ncnn2n1`, 151 to 153 °C. `Fc1ccc(Cn2cnc3ccccc32)cc1` displayed a melting point of 60 to 62 °C. In turn, `C(=Cc1nc2ccccc2s1)c1ccc2cc(N(c3ccccc3)c3ccccc3)ccc2c1` came in with a melting point of 181 to 185 °C.

`COc1cc(Br)c2oc(-c3ccc(OC)c(F)c3)nc2c1` had a melting point of 175 to 177 °C.

Regarding `O=C(O)CNc1nccc(-n2cc(C3c4ccccc4C=Cc4ccccc43)c(=S)[nH]c2=O)n1`, the melting point was found to be 208 °C.

Turning to `Cc1nc2ccc(F)cc2[nH]c1=O`, the melting point lay in the range of 258 to 260 °C. With `Cn1ccnc1C1=Cc2cc(OC(C)(C)C(=O)O)ccc2OC1` the figure was 187 to 190 °C; with `O=C(OCCS(=O)(=O)Cc1ccccc1)c1cc(Oc2ccc(C(F)(F)F)cc2Cl)ccc1[N+](=O)[O-]`, 105 °C. `CC(C)[C@H](C[C@H](O)[C@H](C)NC(=O)OC(C)(C)C)C(=O)NCCCn1ccnc1`: the melting point lay within 148 to 150 °C.

Turning to `O=C(O)c1cc(C(=O)O)c(C(O)=NCCO)cc1C(O)=NCCO`, the melting point is 280 to 281 °C. Regarding `CC(C)(C)C(=O)Oc1ccc(-c2nnn(CCO)n2)cc1`, the melting point lay in the range of 92 to 95 °C.

Consider `O=C(CCc1ccccc1)NCC(=O)N1c2ccccc2N(Cc2ccccc2)C(=O)[C@H]2CCC[C@H]21` (relative stereo), for which the melting point is 205 to 207 °C. Regarding `CCn1c(CC(=O)NOCc2ccccc2)nc2cc(F)c(N3CCN(C)CC3)cc21`, the melting point was 165 to 168 °C. `Cc1cc2c(-c3ccccc3F)nc(=O)n(C)c2s1` returned a melting point of 119 to 121 °C. As to `CC(C)=CCOc1c(-c2ccc(S(C)(=O)=O)cc2)cnn(-c2cccc(Cl)c2)c1=O`, the melting point fell in the range of 113 to 115 °C.

In turn, `COC(=O)[C@H](CC(=O)OC(C)(C)C)NC(=O)c1cccc(NC(=O)c2ccc(C#N)cc2)c1` had a melting point of 83 to 84 °C. Under `O=C(N[C@H](Cc1ccc(C(F)(F)F)cc1)[C@@H](O)c1ccc(F)cc1)c1cccc2cc3ccccc3cc12` (racemic) stands 227 to 228 °C.

In turn, `CC(C)(C)[Si](C)(C)O[C@@H]1C[C@]2(O)C[C@@H](OC2=O)C1=O` registered a melting point of 92 to 95 °C.

`NC(=O)c1ccc(C(=O)C=C(c2cc(Cl)cc(Cl)c2)C(F)(F)F)cc1`: the melting point was 156 to 160 °C. For the compound `Cn1ncc2c1=CC1=CC=C(N)C(=O)C=21`, the melting point fell in the range of 225 to 227 °C.

`CCCCCCCCCCCCSc1ccc2c(c1)C(=O)c1c(c(Oc3ccccc3)c3ccccc3c1Oc1ccccc1)C2=O` came in with a melting point of 165 to 168 °C. With `CCOCCOCCOc1cc(N2C(=O)C3=C(CCCC3)C2=O)c(F)cc1Cl` the figure was 61 °C.
